According to ChEMBL document CHEMBL3045466, “Novel 2H-[1,2,4]thiadiazolo[2,3-a]pyrimidine derivatives bearing chiral S()-2-(4-chlorophenyl)-3-methylbutyric acid moiety: Design, synthesis and herbicidal activity” (2010):

How the values were obtained:
Assay type in all cases: functional
Conditions in all cases: 144 h, read-out: GI
Amaranthus retroflexus [1] = experiment: Herbicidal activity against Amaranthus retroflexus assessed as inhibition of root growth at 100 ppm after 6 days by flat-utensil method relative to control
Amaranthus retroflexus [2] = experiment: Herbicidal activity against Amaranthus retroflexus assessed as inhibition of stalk growth at 100 ppm after 6 days by flat-utensil method relative to control
Amaranthus retroflexus [3] = experiment: Herbicidal activity against Amaranthus retroflexus assessed as inhibition of root growth at 50 ppm after 6 days by flat-utensil method relative to control
Amaranthus retroflexus [4] = experiment: Herbicidal activity against Amaranthus retroflexus assessed as inhibition of stalk growth at 50 ppm after 6 days by flat-utensil method relative to control
Chenopodium ficifolium [5] = experiment: Herbicidal activity against Chenopodium ficifolium assessed as inhibition of root growth at 100 ppm after 6 days by flat-utensil method relative to control
Chenopodium ficifolium [6] = experiment: Herbicidal activity against Chenopodium ficifolium assessed as inhibition of stalk growth at 100 ppm after 6 days by flat-utensil method relative to control
Chenopodium ficifolium [7] = experiment: Herbicidal activity against Chenopodium ficifolium assessed as inhibition of root growth at 50 ppm after 6 days by flat-utensil method relative to control
Chenopodium ficifolium [8] = experiment: Herbicidal activity against Chenopodium ficifolium assessed as inhibition of stalk growth at 50 ppm after 6 days by flat-utensil method relative to control
Digitaria sanguinalis [9] = experiment: Herbicidal activity against Digitaria sanguinalis (hairy crabgrass) assessed as inhibition of root growth at 100 ppm after 6 days by flat-utensil method relative to control
Digitaria sanguinalis [10] = experiment: Herbicidal activity against Digitaria sanguinalis (hairy crabgrass) assessed as inhibition of stalk growth at 100 ppm after 6 days by flat-utensil method relative to control
Digitaria sanguinalis [11] = experiment: Herbicidal activity against Digitaria sanguinalis (hairy crabgrass) assessed as inhibition of root growth at 50 ppm after 6 days by flat-utensil method relative to control
Digitaria sanguinalis [12] = experiment: Herbicidal activity against Digitaria sanguinalis (hairy crabgrass) assessed as inhibition of stalk growth at 50 ppm after 6 days by flat-utensil method relative to control
Sorghum bicolor [13] = experiment: Herbicidal activity against Sorghum bicolor assessed as inhibition of root growth at 100 ppm after 6 days by flat-utensil method relative to control
Sorghum bicolor [14] = experiment: Herbicidal activity against Sorghum bicolor assessed as inhibition of stalk growth at 100 ppm after 6 days by flat-utensil method relative to control
Sorghum bicolor [15] = experiment: Herbicidal activity against Sorghum bicolor assessed as inhibition of root growth at 50 ppm after 6 days by flat-utensil method relative to control
Sorghum bicolor [16] = experiment: Herbicidal activity against Sorghum bicolor assessed as inhibition of stalk growth at 50 ppm after 6 days by flat-utensil method relative to control
Echinochloa crus-galli [17] = experiment: Herbicidal activity against Echinochloa crus-galli (barnyard grass) assessed as inhibition of root growth at 100 ppm after 6 days by flat-utensil method relative to control
Echinochloa crus-galli [18] = experiment: Herbicidal activity against Echinochloa crus-galli (barnyard grass) assessed as inhibition of stalk growth at 100 ppm after 6 days by flat-utensil method relative to control
Echinochloa crus-galli [19] = experiment: Herbicidal activity against Echinochloa crus-galli (barnyard grass) assessed as inhibition of root growth at 50 ppm after 6 days by flat-utensil method relative to control
Echinochloa crus-galli [20] = experiment: Herbicidal activity against Echinochloa crus-galli (barnyard grass) assessed as inhibition of stalk growth at 50 ppm after 6 days by flat-utensil method relative to control

Compound | inhibition of growth at 100 ppm (Amaranthus retroflexus [1]) [%] | inhibition of growth at 100 ppm (Amaranthus retroflexus [2]) [%] | inhibition of growth at 50 ppm (Amaranthus retroflexus [3]) [%] | inhibition of growth at 50 ppm (Amaranthus retroflexus [4]) [%] | inhibition of growth at 100 ppm (Chenopodium ficifolium [5]) [%] | inhibition of growth at 100 ppm (Chenopodium ficifolium [6]) [%] | inhibition of growth at 50 ppm (Chenopodium ficifolium [7]) [%] | inhibition of growth at 50 ppm (Chenopodium ficifolium [8]) [%] | inhibition of growth at 100 ppm (Digitaria sanguinalis [9]) [%] | inhibition of growth at 100 ppm (Digitaria sanguinalis [10]) [%] | inhibition of growth at 50 ppm (Digitaria sanguinalis [11]) [%] | inhibition of growth at 50 ppm (Digitaria sanguinalis [12]) [%] | inhibition of growth at 100 ppm (Sorghum bicolor [13]) [%] | inhibition of growth at 100 ppm (Sorghum bicolor [14]) [%] | inhibition of growth at 50 ppm (Sorghum bicolor [15]) [%] | inhibition of growth at 50 ppm (Sorghum bicolor [16]) [%] | inhibition of growth at 100 ppm (Echinochloa crus-galli [17]) [%] | inhibition of growth at 100 ppm (Echinochloa crus-galli [18]) [%] | inhibition of growth at 50 ppm (Echinochloa crus-galli [19]) [%] | inhibition of growth at 50 ppm (Echinochloa crus-galli [20]) [%]
Cc1cc(C)n2s/c(=N\C(=O)[C@H](c3ccc(Cl)cc3)C(C)C)nc2n1 | 100 | 95 | 50 | 50 | 85 | 80 | 50 | 50 | 80 | 90 | 45 | 55 | 20 | 25 | 20 | 20 | 30 | 80 | 30 | 50
COc1cc(OC)n2s/c(=N\C(=O)[C@H](c3ccc(Cl)cc3)C(C)C)nc2n1 | 95 | 80 | 40 | 45 | 90 | 90 | 90 | 90 | 80 | 90 | 40 | 50 | 50 | 40 | 20 | 25 | 20 | 70 | 20 | 40
CC(C)[C@H](C(=O)/N=c1/nc2nc(Cl)cc(Cl)n2s1)c1ccc(Cl)cc1 | 80 | 75 | 45 | 50 | 60 | 40 | 30 | 20 | 0 | 10 | 0 | 0 | 20 | 30 | 20 | 20 | 50 | 75 | 30 | 40
COc1cc(Cl)n2s/c(=N\C(=O)[C@H](c3ccc(Cl)cc3)C(C)C)nc2n1 | 30 | 20 | 0 | 0 | 10 | 20 | 10 | 10 | 10 | 10 | 0 | 0 | 80 | 80 | 60 | 60 | 100 | 70 | 80 | 60
Cc1cc(O)n2s/c(=N\C(=O)[C@H](c3ccc(Cl)cc3)C(C)C)nc2n1 | 90 | 95 | 50 | 60 | 80 | 100 | 50 | 70 | 25 | 10 | 20 | 10 | 30 | 40 | 30 | 35 | 80 | 40 | 70 | 30
Cc1cc(Cl)n2s/c(=N\C(=O)[C@H](c3ccc(Cl)cc3)C(C)C)nc2n1 | 100 | 100 | 85 | 90 | 90 | 85 | 80 | 80 | 40 | 30 | 30 | 30 | 40 | 20 | 20 | 10 | 90 | 30 | 70 | 10
Cc1cc(C)n2s/c(=N\C(=O)C(c3ccc(Cl)cc3)C(C)C)nc2n1 (racemic) | 50 | 20 | 20 | 10 | 60 | 70 | 35 | 40 | 70 | 60 | 30 | 40 | 0 | 10 | 0 | 0 | 10 | 25 | 0 | 20
COc1cc(OC)n2s/c(=N\C(=O)C(c3ccc(Cl)cc3)C(C)C)nc2n1 (racemic) | 45 | 30 | 20 | 30 | 50 | 50 | 20 | 20 | 60 | 60 | 30 | 35 | 0 | 20 | 0 | 10 | 0 | 30 | 0 | 30
